According to the METLIN SMRT retention time set (Domingo-Almenara et al. 2019):

Assay: gradient 5% acetonitrile 3 min, to 50% in 2 min, to 85% in 15 min, held 3 min, 100 µL/min
Details: column: Zorbax Extend-C18 2.1 x 50 mm; eluents: water / acetonitrile, 0.1% formic acid
Outline: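 The system's dead and dwell volumes were 40 μL and 900 μL, with a Zorbax Extend-C18 column (2.1 × 50 mm, 1.8 μm) run at 100 μL/min in water and acetonitrile containing 0.1% formic acid each. Pure standards were analyzed in mixtures of ~100 molecules by HPLC–quadrupole time-of-flight mass spectrometry in positive and negative ionization mode. Retention time was assigned from computationally picked, manually inspected adduct peaks.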

SMILES: O=C(Nc1ccc(C(F)(F)F)cc1)NC1CCN(c2ccc(F)cc2)C1=O (stereo not given)
- RP-LC retention time: 920 s

SMILES: Cc1cc2[nH]c(C(=O)Nc3ccccc3F)c(CN3CCOCC3)c2s1
- RP-LC retention time: 686 s

SMILES: Nc1c(-c2nnc(SCC(=O)N3CCOCC3)n2CC2CCCO2)sc2ncccc12 (stereo not given)
- RP-LC retention time: 641 s

SMILES: Cc1cccc(C)c1NC(=O)Cn1ncc2c(c1=O)N(C1CC1)C(=O)CS2
- RP-LC retention time: 714 s

SMILES: COCCCNC(=O)C1(C)Cn2nc(-c3ccccc3)cc2C(=O)N1c1ccccc1F (stereo not given)
- RP-LC retention time: 830 s

SMILES: CN(C)C(=O)c1n[nH]c2c1CN(C(=O)c1ccc(F)cc1)CC2
- RP-LC retention time: 622 s

SMILES: Cc1ccc2nc(-c3cc(Br)ccc3F)c(Nc3ccc4c(c3)OCCO4)n2c1
- RP-LC retention time: 737 s

SMILES: Cc1ccc(NC(=O)N2CCCC2c2nc(-c3ccc(F)cc3F)no2)cc1C (stereo not given)
- RP-LC retention time: 1050 s

SMILES: CCc1ccc(C(=O)c2cnc3ccc(OC)cc3c2N2CCN(CC)CC2)cc1
- RP-LC retention time: 619 s

SMILES: CC(C)n1c(=O)oc2cc(S(=O)(=O)N3CCN(C(=O)C4(c5ccccc5)CC4)CC3)ccc21
- RP-LC retention time: 902 s

SMILES: O=C(Nc1ccc(N2CCCN(C(=O)C3CC3)CC2)cc1)c1ccc(=O)[nH]c1
- RP-LC retention time: 595 s

SMILES: COc1cccc(CNC(=O)C2CCCN2S(=O)(=O)c2cc3c(cc2C)NC(=O)C(C)O3)c1 (stereo not given)
- RP-LC retention time: 788 s

SMILES: CN(c1nccn2c(=O)n(CC(=O)Nc3ccc(F)cc3F)nc12)C1CCCCC1
- RP-LC retention time: 902 s

SMILES: CCOCCCNC(=O)N1CCCCCC1c1ccc(C)cc1 (stereo not given)
- RP-LC retention time: 954 s

SMILES: CCC(=O)NCc1nc2c(n1CC)CN(C(=O)c1ccccc1C(F)(F)F)CC2
- RP-LC retention time: 594 s

SMILES: CCCNC(=O)CSc1ncccc1C(=O)O
- RP-LC retention time: 599 s

SMILES: COc1cc(NC(=O)COc2cc(C)nc(-c3ccc(C(F)(F)F)cc3)n2)cc(OC)c1OC
- RP-LC retention time: 1080 s

SMILES: Cc1ccc(C)c(N2CCN(c3ccnc(SCC(=O)NCCC4=CCCCC4)n3)CC2)c1
- RP-LC retention time: 1090 s

SMILES: Cc1cc(N2CCN(C(=O)Cc3ccc(F)cc3)CC2)nc2nncn12
- RP-LC retention time: 596 s

SMILES: Cc1cc2c(c(=O)n(-c3ccccc3)c(=O)n2CC(=O)Nc2ccc(C(F)(F)F)cc2)n1C
- RP-LC retention time: 927 s

SMILES: COc1ccc(N2CCN(C(c3cccs3)C(C)NC(=O)C(=O)N3CCCC3)CC2)cc1 (stereo not given)
- RP-LC retention time: 670 s

SMILES: Cc1sc(NC(=O)CCn2c(=O)sc3ccccc32)nc1-c1ccc(Cl)cc1
- RP-LC retention time: 1110 s

SMILES: Cc1cc(N2CCN(C)CC2)nc2ccc(NC(=O)Nc3ccccc3)cc12
- RP-LC retention time: 564 s

SMILES: O=C(C1=NNc2ccccc2S1(=O)=O)N1CCOCC1
- RP-LC retention time: 618 s

SMILES: COc1cc(OC)cc(C(=O)Nc2ccc3c(c2)Sc2ncccc2C(=O)N3C(C)C)c1
- RP-LC retention time: 916 s

SMILES: CCOc1ncccc1C(=O)Nc1c(C)nc2sc(C)c(C)n2c1=O
- RP-LC retention time: 723 s

SMILES: CCc1nnc([C@@H]2CC(F)(F)CN2C(=O)c2coc(C)n2)o1
- RP-LC retention time: 678 s

SMILES: O=C(c1ccsc1)N1CCC(n2c(C3CCCC3)nc3cccnc32)C1 (stereo not given)
- RP-LC retention time: 636 s

SMILES: CCOC(=O)C1CCN(S(=O)(=O)c2cccc(-c3cn4ccccc4n3)c2)CC1
- RP-LC retention time: 676 s

SMILES: Cc1ccccc1-c1noc(Cn2ccn(-c3ccc(Cl)cc3)c(=O)c2=O)n1
- RP-LC retention time: 918 s

SMILES: C=CCN1C(=O)COc2ccc(-c3csc(NC(=O)CCC4CCCCC4)n3)cc21
- RP-LC retention time: 1210 s

SMILES: CCn1ccc2c(cc(C(=O)Nc3ccc(C)c(Cl)c3)n2C)c1=O
- RP-LC retention time: 907 s

SMILES: Cc1ccc(S(=O)(=O)N2CCC(CCNC(=O)NC(C)C)CC2)cc1
- RP-LC retention time: 796 s

SMILES: CC(NS(=O)(=O)c1ccc2c(c1)CCN2C(=O)N1CCCC1)C(=O)N1CCCCC1 (stereo not given)
- RP-LC retention time: 720 s

SMILES: O=C(NCCCN1CCCC1)c1ccc2c(c1)NC(=O)C1CCCCN21 (stereo not given)
- RP-LC retention time: 588 s

SMILES: Cc1ccc(-c2cc3n(n2)CCCN(C(=O)Cc2ccsc2)C3)cc1
- RP-LC retention time: 857 s

SMILES: CN1CCn2cc(S(=O)(=O)Nc3cccc(Cl)c3)cc2C1=O
- RP-LC retention time: 709 s

SMILES: O=S(=O)(c1ccc(-c2noc(-c3ccccc3F)n2)cc1)N1CCOCC1
- RP-LC retention time: 1030 s

SMILES: Cc1ncoc1C(=O)N1CCC(C2CCN(S(C)(=O)=O)CC2)C1 (stereo not given)
- RP-LC retention time: 642 s

SMILES: Cc1nn(-c2ccccc2)c(C)c1S(=O)(=O)N1CCC(C(=O)Nc2cccc(Cl)c2)CC1
- RP-LC retention time: 1040 s

SMILES: CC(C)CNC(=O)C1CCN(c2nccn3nc(-c4cccs4)cc23)CC1
- RP-LC retention time: 561 s

SMILES: COc1ccc2[nH]cc(CCNC(=O)c3ccc(SC)cc3OC)c2c1
- RP-LC retention time: 865 s

SMILES: CC1Oc2ccc(S(=O)(=O)N3CCC(C(=O)NC4CCCCCCC4)CC3)cc2NC1=O (stereo not given)
- RP-LC retention time: 907 s

SMILES: Cc1cc(=O)n(Cc2cccc(Br)c2)c(Nc2ccc(F)c(F)c2)n1
- RP-LC retention time: 1270 s

SMILES: CC(C(=O)Nc1nc2ccc(S(C)(=O)=O)cc2s1)n1nnc2ccccc2c1=O (stereo not given)
- RP-LC retention time: 706 s

SMILES: Cc1csc(-c2cc(S(=O)(=O)NCC(C)c3ccccc3)c(C)s2)n1 (stereo not given)
- RP-LC retention time: 1110 s

SMILES: COc1ccc(-c2cn3c(CC(=O)NCc4ccccc4)csc3n2)cc1OC
- RP-LC retention time: 693 s

SMILES: CCc1cccc(C)c1NC(=O)C1CCN(S(=O)(=O)c2ccc3c(c2)NC(=O)CO3)CC1
- RP-LC retention time: 818 s

SMILES: CCCNC(=O)c1ccc2ncn(C)c(=O)c2c1
- RP-LC retention time: 596 s

SMILES: O=C(Cc1ccc(F)cc1)Nc1nnc(-c2ccc(Br)cc2)s1
- RP-LC retention time: 952 s

SMILES: Cc1cccc(CC(=O)N2C[C@@H]3C[C@H]2C[C@@H]3NS(=O)(=O)c2cccs2)c1
- RP-LC retention time: 815 s

SMILES: COC(=O)c1ccc(NC(=O)N2CCCC2c2cc(C(C)C)no2)cc1 (stereo not given)
- RP-LC retention time: 845 s

SMILES: Cc1ccc2oc(-c3noc(C(=O)NCCN(C)C)n3)c(C)c2c1
- RP-LC retention time: 682 s

SMILES: Cc1c(C(=O)O)nnn1Cc1cccc(C(F)(F)F)c1
- RP-LC retention time: 744 s

SMILES: CCCN(C)c1nccn2c(=O)n(CC(=O)Nc3ccc(C)cc3Br)nc12
- RP-LC retention time: 743 s

SMILES: CC(C)CC(=O)N1CCc2[nH]nc(C(=O)NCCCc3ccccc3)c2C1
- RP-LC retention time: 795 s

SMILES: Cc1cc(N2CCN(C)CC2)nc(N2CCN(C(=O)c3ccc(C(C)(C)C)cc3)CC2)n1
- RP-LC retention time: 586 s

SMILES: COC(=O)c1ccc(NC(=O)C(=O)NCCN2CCN(c3ccccc3OC)CC2)cc1
- RP-LC retention time: 581 s

SMILES: CCN(C(=O)C1CCCN(c2ncnc3c2nc2n3CCCCC2)C1)c1cc(C)ccc1C (stereo not given)
- RP-LC retention time: 905 s

SMILES: Cc1ncoc1C(=O)N1CCC(N2CC(OCC3CC3)C23CCOCC3)CC1 (stereo not given)
- RP-LC retention time: 587 s

SMILES: O=C(NCCc1c[nH]c2ccc(F)cc12)c1cncc(Br)c1
- RP-LC retention time: 796 s

SMILES: COc1ccc(-c2noc(C3CC(=O)N(c4ccc(C)cc4)C3)n2)c(OC)c1 (stereo not given)
- RP-LC retention time: 888 s

SMILES: O=C(Nc1ccc(Br)cc1)N1CCCC1c1nc(-c2ccc(F)cc2F)no1 (stereo not given)
- RP-LC retention time: 1050 s

SMILES: Cc1noc(C2CCCCN2Cc2cc(=O)n3ccccc3n2)n1 (stereo not given)
- RP-LC retention time: 608 s

SMILES: CSc1ncccc1C(=O)N(Cc1cccs1)Cc1cccn1C
- RP-LC retention time: 904 s

SMILES: Cc1ccc(S(=O)(=O)N2CCCOC2CNC(=O)C(=O)NCCCn2ccnc2)cc1 (stereo not given)
- RP-LC retention time: 558 s

SMILES: O=C(c1c(OCC2CC2)cc(=O)n2c1CCCCC2)N1CCc2ccccc2C1
- RP-LC retention time: 837 s

SMILES: O=C(Cn1ncccc1=O)NCc1ccco1
- RP-LC retention time: 542 s

SMILES: CCc1ccc(CN2C(=O)CN(S(C)(=O)=O)CC2(C)C(=O)NC2CCCCCCC2)cc1 (stereo not given)
- RP-LC retention time: 1040 s

SMILES: Cc1cc(C)cc(C(=O)N2C[C@@H]3C[C@H](NC(=O)c4cccnc4)[C@H]2C3)c1
- RP-LC retention time: 658 s

SMILES: O=C(Nc1cccn2nc(C3CC3)nc12)c1cccs1
- RP-LC retention time: 788 s

SMILES: CCOC(=O)c1ccc(OC(=O)c2cn(CC)c(=O)c3ccccc23)cc1
- RP-LC retention time: 1110 s

SMILES: COc1ccc2nc(-c3ccc(F)c(NC(=O)Nc4ccccc4C)c3)cn2n1
- RP-LC retention time: 789 s

SMILES: CCCCN(CCCC)c1nc(-c2ccccc2)nc2ccccc12
- RP-LC retention time: 976 s

SMILES: O=C(Nc1cc(-c2cccs2)no1)C1CC1
- RP-LC retention time: 803 s

SMILES: Cc1ccc(CN2CCN(CC(=O)NC3CCN(Cc4ccccc4)CC3)C(=O)C2=O)cc1
- RP-LC retention time: 614 s

SMILES: CCCn1c2ccccc2c2cnn(CC(=O)NCCN(C)Cc3ccccc3)c(=O)c21
- RP-LC retention time: 699 s

SMILES: O=C(c1cccs1)N1CCCCC1c1nncn1CC1CC1 (stereo not given)
- RP-LC retention time: 690 s

SMILES: Cc1ccc(F)c(NC(=O)C2CC(=O)N(c3ccc4c(c3)CCN4C(=O)C3CC3)C2)c1 (stereo not given)
- RP-LC retention time: 799 s

SMILES: O=C(NC1CC1)c1ccc(OCC2CCN(C(=O)c3ccc(F)c(Cl)c3)CC2)cc1
- RP-LC retention time: 870 s

SMILES: Cc1ccc(-c2ncccc2CNC(=O)c2ccc3c(c2)OCO3)cc1
- RP-LC retention time: 646 s

SMILES: Cc1cccc(C)c1NC(=O)N1CCC(c2cc(N)on2)CC1
- RP-LC retention time: 660 s

SMILES: O=C(CCCc1nc(-c2ccc(Cl)cc2)no1)Nc1nc(-c2ccccc2)cs1
- RP-LC retention time: 1170 s

SMILES: O=C(c1csc(N2CCN(c3ccc(F)cc3)CC2)n1)N1CCCC1
- RP-LC retention time: 963 s

SMILES: CSc1nnc(NC(=O)CN(C)S(C)(=O)=O)s1
- RP-LC retention time: 603 s

SMILES: c1ccc(Cn2cnnc2C2CCCCN2Cc2ccoc2)cc1 (stereo not given)
- RP-LC retention time: 601 s

SMILES: CCc1ccc(NC(=O)c2c(C)oc3c2C2=NC(CC)CN2C=N3)cc1 (stereo not given)
- RP-LC retention time: 712 s

SMILES: Cc1cccc(CNC(=O)C2CC(=O)N(c3ccc4c(c3)CCN4C(=O)C3CC3)C2)c1 (stereo not given)
- RP-LC retention time: 768 s

SMILES: CCCOc1ccc(-c2csc(NC(=O)c3sc(C)nc3C)n2)cc1
- RP-LC retention time: 1080 s

SMILES: Cc1nc(-c2cn(C)c3ncccc23)sc1C(=O)Nc1cc(F)ccc1F
- RP-LC retention time: 944 s
